Assay: Solubility of EDOT^PEGn-HTL monomer variants in various solvents
Format: physicochemical
Conditions: compared among three variants (n=1,2,3)
From the text: EDOT conjugates with HTL have not been reported previously. Initially a series of EDOT^PEGn-HTL monomers (n=1,2,3, . . . ) were synthesized, wherein it was anticipated that increasing the number of PEG repeats would improve solubility, at the risk of exacerbating sidechain steric interference (FIG. 2A). The HTL modification increases the molecular weight of the monomer. The unmodified EDOT has a molecular weight (MW) of […]; while EDOT^PEGn-HTL has a MW of 551 (n=1), 595 (n=2), 639 (n=3), or MW of 507+44×n. Thus, all of the candidate designs carry substantial steric bulk, which is inevitable.
Several conditions were tested, including various solvents, against the three variants. […] EDOT^PEG3-HTL was unable to be polymerized with PSS as the counter-ion. Specifically, whereas the formation of PEDOT:PSS is accompanied by an unmistakable darkening of a gold surface (i.e., the polymer is visible to the naked eye), no visual indication of polymerization was seen when EDOT was replaced with EDOT^PEG3-HTL (FIG. 3A and FIG. 3B). This held true over a wide range of voltage parameters and concentrations.

O=C(CCOCCOCCOCCNC(=O)COCC1COc2cscc2O1)NCCOCCOCCCCCCCl (stereo not shown) [EDOT^PEG3-HTL, N-(2-(2-((6-chlorohexyl)oxy)ethoxy)ethyl)-3-((1-(2,3-dihydrothieno[3,4-b][1,4]dioxin-2-yl)-4-oxo-2,8,11-trioxa-5-azatridecan-13-yl)oxy)propanamide]
solubility: most soluble
